Patent publication US12240816B2, “Deuterated compounds and uses thereof” (Aldeyra Therapeutics, Inc., priority 2015, dated 2025)
Read-outs that look alike come from different tables or passages of the source.

Experiments:
[1] = molecular target: T1, MT3 (ML2) (Mesocricetus auratus, UniProt A0ABM2YAB8); assay: MT3 (ML2) (agonist radioligand) binding assay; details: MT3 (ML2)(h) (agonist radioligand), 1.0E−05M
T1 sequence (A0ABM2YAB8 1-231): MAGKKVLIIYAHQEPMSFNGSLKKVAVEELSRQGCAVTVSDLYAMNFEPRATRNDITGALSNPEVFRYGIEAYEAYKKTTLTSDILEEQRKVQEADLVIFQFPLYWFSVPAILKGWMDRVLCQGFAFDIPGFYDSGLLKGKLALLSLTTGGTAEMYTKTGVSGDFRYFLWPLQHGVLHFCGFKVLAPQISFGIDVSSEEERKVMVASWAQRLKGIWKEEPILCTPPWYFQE

[2] = molecular target: guanylyl cyclase (h) (Homo sapiens, UniProt Q02108+Q02153); format: biochemical; details: guanylyl cyclase (h) (activator effect); 1.0E−05M
[3] = molecular target: MAO-A (Rattus norvegicus, UniProt P21396); assay: MAO-A (antagonist radioligand) binding assay; details: 1.0E−05M
[4] = molecular target: acetylcholinesterase (h) (Homo sapiens, UniProt P22303); assay: biochemical
[5] = read-out: % Inhibition of Control Specific Binding 1st
[6] = read-out: % Inhibition of Control Specific Binding 2nd
[7] = read-out: % Inhibition of Control Specific Binding Mean

MAO-A, sequence (P21396 whole entry): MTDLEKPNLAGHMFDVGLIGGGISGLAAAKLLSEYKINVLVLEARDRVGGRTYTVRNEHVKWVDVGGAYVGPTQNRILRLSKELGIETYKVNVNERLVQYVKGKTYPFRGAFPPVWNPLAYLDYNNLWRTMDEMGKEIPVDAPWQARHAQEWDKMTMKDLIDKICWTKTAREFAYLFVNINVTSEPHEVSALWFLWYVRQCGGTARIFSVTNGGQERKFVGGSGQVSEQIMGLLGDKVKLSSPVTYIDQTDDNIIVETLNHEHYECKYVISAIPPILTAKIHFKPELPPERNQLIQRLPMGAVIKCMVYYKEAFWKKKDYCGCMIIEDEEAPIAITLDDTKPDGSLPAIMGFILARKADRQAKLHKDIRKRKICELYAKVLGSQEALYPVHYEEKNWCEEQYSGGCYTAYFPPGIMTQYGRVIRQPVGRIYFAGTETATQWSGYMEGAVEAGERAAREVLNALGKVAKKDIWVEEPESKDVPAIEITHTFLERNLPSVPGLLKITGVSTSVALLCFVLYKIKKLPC
acetylcholinesterase (h), sequence (P22303 32-614): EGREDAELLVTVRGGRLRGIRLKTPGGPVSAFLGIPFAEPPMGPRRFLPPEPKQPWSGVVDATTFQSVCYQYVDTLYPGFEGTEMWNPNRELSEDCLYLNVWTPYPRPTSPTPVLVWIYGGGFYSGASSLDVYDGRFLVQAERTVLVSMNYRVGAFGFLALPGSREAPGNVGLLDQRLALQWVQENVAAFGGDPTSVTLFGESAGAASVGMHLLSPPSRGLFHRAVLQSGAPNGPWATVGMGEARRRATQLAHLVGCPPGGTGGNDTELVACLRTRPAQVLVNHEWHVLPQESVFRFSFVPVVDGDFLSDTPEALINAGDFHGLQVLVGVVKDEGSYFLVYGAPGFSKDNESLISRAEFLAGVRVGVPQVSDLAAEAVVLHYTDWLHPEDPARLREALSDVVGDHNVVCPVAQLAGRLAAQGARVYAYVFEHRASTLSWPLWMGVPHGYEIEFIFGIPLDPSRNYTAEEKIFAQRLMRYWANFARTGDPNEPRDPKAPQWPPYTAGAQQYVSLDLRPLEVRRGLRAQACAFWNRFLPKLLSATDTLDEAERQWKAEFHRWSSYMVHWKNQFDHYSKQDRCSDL
guanylyl cyclase (h), sequence (Q02153 whole entry): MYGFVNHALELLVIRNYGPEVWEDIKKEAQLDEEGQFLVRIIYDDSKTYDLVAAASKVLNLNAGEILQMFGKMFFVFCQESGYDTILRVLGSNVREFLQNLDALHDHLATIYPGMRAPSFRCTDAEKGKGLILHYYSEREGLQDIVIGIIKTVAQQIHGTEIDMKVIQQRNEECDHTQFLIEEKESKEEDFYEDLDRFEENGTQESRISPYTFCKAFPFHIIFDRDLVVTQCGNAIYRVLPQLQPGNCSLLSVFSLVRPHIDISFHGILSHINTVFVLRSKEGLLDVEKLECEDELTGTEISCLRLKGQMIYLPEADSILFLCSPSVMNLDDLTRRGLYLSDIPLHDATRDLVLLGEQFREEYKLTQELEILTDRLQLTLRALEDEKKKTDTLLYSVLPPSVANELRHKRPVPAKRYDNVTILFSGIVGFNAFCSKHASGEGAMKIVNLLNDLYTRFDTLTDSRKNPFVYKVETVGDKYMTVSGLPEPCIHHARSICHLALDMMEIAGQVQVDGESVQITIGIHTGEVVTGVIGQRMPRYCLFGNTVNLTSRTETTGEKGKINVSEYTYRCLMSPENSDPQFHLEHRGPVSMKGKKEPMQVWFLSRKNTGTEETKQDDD
guanylyl cyclase (h), sequence (Q02108 whole entry): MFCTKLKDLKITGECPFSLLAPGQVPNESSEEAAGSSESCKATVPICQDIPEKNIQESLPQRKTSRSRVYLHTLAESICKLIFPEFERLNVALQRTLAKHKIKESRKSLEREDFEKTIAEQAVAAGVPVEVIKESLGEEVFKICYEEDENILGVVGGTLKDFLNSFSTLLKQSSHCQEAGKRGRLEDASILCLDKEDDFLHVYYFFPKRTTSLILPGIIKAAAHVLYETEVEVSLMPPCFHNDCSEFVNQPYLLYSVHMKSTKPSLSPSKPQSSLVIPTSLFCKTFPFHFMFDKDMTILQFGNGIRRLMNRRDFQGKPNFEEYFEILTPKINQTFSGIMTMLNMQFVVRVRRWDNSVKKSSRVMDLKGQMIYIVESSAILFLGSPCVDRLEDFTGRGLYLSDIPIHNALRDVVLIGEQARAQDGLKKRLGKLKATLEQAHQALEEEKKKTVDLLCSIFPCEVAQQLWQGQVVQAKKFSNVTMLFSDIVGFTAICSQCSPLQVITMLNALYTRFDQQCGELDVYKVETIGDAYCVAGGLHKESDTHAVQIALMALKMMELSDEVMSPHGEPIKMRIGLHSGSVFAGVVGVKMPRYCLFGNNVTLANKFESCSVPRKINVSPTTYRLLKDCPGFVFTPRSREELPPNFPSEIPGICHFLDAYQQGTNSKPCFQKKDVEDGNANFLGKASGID

[2H]C([2H])([2H])C(O)(c1nc2ccc(Cl)cc2cc1N)C([2H])([2H])[2H] [Compound I-1]
inhibition at 10 µM [1, 5]: 69% | inhibition at 10 µM [1, 6]: 73.3% | inhibition at 10 µM [1, 7]: 71.1% | % of Control Values 1st [2]: 0.2% | % of Control Values 2nd [2]: 0.3% | % of Control Values Mean [2]: 0.2% | inhibition at 10 µM [3, 5]: 66.4% | inhibition at 10 µM [3, 6]: 70.7% | inhibition at 10 µM [3, 7]: 68.5% | inhibition at 10 µM ([4]; read-out: % inhibition of Control Values 1st): 45.8% | inhibition at 10 µM ([4]; read-out: % inhibition of Control Values 2nd): 60.1% | inhibition at 10 µM ([4]; read-out: % inhibition of Control Values Mean): 52.9%
